According to patent US12595253B2, “Benzamides of pyrazolylamino-pyrimidinyl derivatives, and compositions and methods thereof” (LYNK PHARMACEUTICALS CO. LTD., priority 2019, dated 2026):

Assays:
[1] = molecular target: T1, JAK1 (Homo sapiens, UniProt P23458); experiment: JAK1 microfluidic kinase assay (Caliper EZ Reader II, FAM labeled peptide substrate); type: biochemical
T1 construct: purchased Carna Biosciences
Method in brief: (§1)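 Activity measured in 50 mM HEPES, 0.01% Brij35, 10 mM MgCl2, 2 mM DTT by microfluidic separation of phosphorylated FAM peptide. Enzyme conditions set for 10% substrate conversion.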

[2] = molecular target: T2, JAK2 (Homo sapiens, UniProt O60674); experiment: JAK2 microfluidic kinase assay (Caliper EZ Reader II, FAM labeled peptide substrate); type: biochemical
T2 construct: purchased Carna Biosciences
Method in brief: as §1

[3] = Liver microsomes study, Phase I stability (RLM); type: in vitro ADME, rat; conditions: pH 7.4; rat liver microsomes 0.5 mg/mL, 1 μM test article; read-out: RLM Clint
Experimental: (§2) Commercially available liver microsomes (MsLM vendor: XENOTECH; RLM, DLM, MkL, HLM vendor: Corning) were used for study the Phase I stability of test articles. […] The reaction was initiated by addition of 80 μL of the NADPH regenerating system to 320 µL of each incubation mixture per time point. […] The 0-minute samples were prepared by addition of an 80 μL aliquot of each incubation mixture to 400 μL quench reagent to precipitate proteins. And then a 20 μL aliquot of the NADPH regenerating system was added. At 10, 30, and 90 minutes, the reaction will be stopped by the addition of cold acetonitrile solution containing tolbutamide and propanolol served as internal standard. The samples taken at all time points were centrifuged at 4000×g for 15 minutes. 80 μL of supernatant are taken into 96-well assay plates pre-added with 160 μL ultrapure water, and then analyzed by LC/MS/MS(Shimadzu LC30AD & API4000/API5000)). Concentrations of test articles, control compounds in the samples were determined by using LC/MS/MS) method. Plotting of the chromatograms and peak area integrations are carried out by Analyst (AB Sciex).
(§3) In the determination of the in vitro elimination constant, ke, of the control compounds, the analyte/internal standard peak area ratios will be converted to percentage remaining (% Remaining) with the following equation: […]
(§4) The slope was measured by the natural logarithm of the percentage of the residual compound and time, T½ and CLint were calculated according to the following formulas, V/M was equal to the 1/concentration of protein.

[4] = Liver microsomes study, Phase I stability (HLM); type: in vitro ADME, human; conditions: pH 7.4; human liver microsomes 0.5 mg/mL, 1 μM test article; read-out: HLM Clint
Experimental: as §2, §3, §4

[5] = Rat pharmacokinetic study (intravenous and oral); type: in vivo; conditions: male, plasma, Sprague-Dawley rats, intravenous, 1 mg/kg, solution
Experimental: Pharmacokinetic profile of test articles in rodent were evaluated in fasted male ICR mouse and Sprague-Dawley rats. […] Typically, mice were dosed with 2 mg/kg and 10 mg/kg by intravenous injection and oral gavage, respectively. Rats were dosed with 1 mg/kg and 5 mg/kg by intravenous injection and oral gavage, respectively. Beagle dogs were dosed with 1 mg/kg and 5 mg/kg by intravenous injection and oral gavage, respectively. After dosing, blood samples were collected at each time point. For IV injection group, time points were set at 5, 15, 30 min, and then 1, 2, 4, 8 and 24 hours after dosing. For oral gavage group, timepoints were set at 15, 30 m, and then 1, 2, 4, 8, and 24 hours. Blood was collected into appropriately labeled tubes containing K2EDTA as the anticoagulant. Plasma was obtained within 1 hours of blood collection by centrifugation at 8000×g and 4° C. for 6 minutes, and then stored at −20° C. until analyzed by LCMS/MS for quantification.

[6] = molecular target: T3, TYK2 (Homo sapiens, UniProt P29597); experiment: TYK2 microfluidic kinase assay (Caliper EZ Reader II, FAM labeled peptide substrate); type: biochemical; conditions: IC50 TYK2 ([…]) (1 mM ATP), TYK2 […], 1 mM ATP
T3 construct: purchased Carna Biosciences
Method in brief: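 3-fold series, top 5 μM, 1% DMSO; 10 min preincubation with enzyme, RT. Buffer 50 mM HEPES/10 mM MgCl2/2 mM DTT/0.01% Brij35. Run times JAK1 120 min, JAK2 20, JAK2V617F 30, TYK2 10. Stopped with 50 mM EDTA; IC50 from % inhibition vs no-enzyme and DMSO controls.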

[7] = molecular target: T4, CYP1A2 (Homo sapiens, UniProt P05177); experiment: CYPs inhibition in pooled human liver microsomes, probe substrate Phenacetin; type: in vitro ADME
T4 construct: 0.2 mg/mL human liver microsomes was pre-incubated in 180 μL reaction mixture; from tissue; host or cells: pooled human liver microsomes
T4 sequence (P05177 1-516): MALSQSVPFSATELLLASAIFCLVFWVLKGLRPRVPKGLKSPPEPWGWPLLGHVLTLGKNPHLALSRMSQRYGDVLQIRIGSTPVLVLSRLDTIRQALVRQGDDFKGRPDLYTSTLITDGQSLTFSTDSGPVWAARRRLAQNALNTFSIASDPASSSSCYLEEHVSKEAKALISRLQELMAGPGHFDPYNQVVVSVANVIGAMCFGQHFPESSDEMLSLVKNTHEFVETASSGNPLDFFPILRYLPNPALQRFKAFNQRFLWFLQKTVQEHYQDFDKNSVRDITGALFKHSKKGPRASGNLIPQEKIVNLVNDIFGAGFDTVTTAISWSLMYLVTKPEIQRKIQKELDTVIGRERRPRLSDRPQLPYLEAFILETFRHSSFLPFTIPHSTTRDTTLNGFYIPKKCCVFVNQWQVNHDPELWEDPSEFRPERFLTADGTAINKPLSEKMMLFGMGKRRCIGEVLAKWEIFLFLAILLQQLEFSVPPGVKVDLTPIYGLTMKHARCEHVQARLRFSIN
Experimental: (§5) The inhibitory potential of test articles in pooled human liver microsomes was evaluated by the method using a cocktail of CYP substrates. […] For the negative control well, the test articles was replaced with 20 μL reaction buffer. After 10 min of pre-incubation at 37° C., 20 μL 10 mM NADPH cofactor was added to the pre-reaction mixtures. After another 10 min incubation, the reaction was stopped by adding 400 μL of ice cold acetonitrile solution containing tolbutamide and labetalol served as internal standards. The incubation mixtures were centrifuged at 4000×g for 20 min, and then the supernatants were analyzed by LC-MS/MS after dilution. SigmaPlot was applied to plot % control activity versus the test compound concentrations, and for non-linear regression analysis of the data. IC50 values of test articles were determined using 3-parameter logistic equation.

[8] = molecular target: T5, CYP2C9 (Homo sapiens, UniProt P11712); experiment: CYPs inhibition in pooled human liver microsomes, probe substrate Diclofenac; type: in vitro ADME
T5 construct: 0.2 mg/mL human liver microsomes was pre-incubated in 180 μL reaction mixture; from tissue; host or cells: pooled human liver microsomes
Experimental: as §5

[9] = molecular target: T6, CYP2C19 (Homo sapiens, UniProt P33261); experiment: CYPs inhibition in pooled human liver microsomes, probe substrate S-mephenytoin; type: in vitro ADME
T6 construct: 0.2 mg/mL human liver microsomes was pre-incubated in 180 μL reaction mixture; from tissue; host or cells: pooled human liver microsomes
Experimental: as §5

[10] = molecular target: T7, CYP2D6 (Homo sapiens, UniProt P10635); experiment: CYPs inhibition in pooled human liver microsomes, probe substrate Dextromethorphan; type: in vitro ADME
T7 construct: 0.2 mg/mL human liver microsomes was pre-incubated in 180 μL reaction mixture; from tissue; host or cells: pooled human liver microsomes
Experimental: as §5

[11] = molecular target: T8, CYP3A4 (Homo sapiens, UniProt P08684); experiment: CYPs inhibition in pooled human liver microsomes, probe substrate Midazolam; type: in vitro ADME
T8 construct: 0.2 mg/mL human liver microsomes was pre-incubated in 180 μL reaction mixture; from tissue; host or cells: pooled human liver microsomes
Experimental: as §5

[12] = molecular target: T9, JAK2V617F (Homo sapiens, UniProt O60674, V617F); experiment: JAK2V617F microfluidic kinase assay (Caliper EZ Reader II, FAM labeled peptide substrate); type: biochemical; conditions: JAK2V617F 2.5 nM, 1 mM ATP
T9 construct: purchased Carna Biosciences
Method in brief: as §1

[13] = IC50 JAK1 (5 nM) (1 m MATP), JAK1 5 nM, 1 mM ATP
[14] = IC50 JAK2 ([…]) (1 mM ATP), 1 mM ATP
[15] = IC50 JAK2 ([…]) (Km ATP), Km ATP

T3 sequence (P29597 whole entry): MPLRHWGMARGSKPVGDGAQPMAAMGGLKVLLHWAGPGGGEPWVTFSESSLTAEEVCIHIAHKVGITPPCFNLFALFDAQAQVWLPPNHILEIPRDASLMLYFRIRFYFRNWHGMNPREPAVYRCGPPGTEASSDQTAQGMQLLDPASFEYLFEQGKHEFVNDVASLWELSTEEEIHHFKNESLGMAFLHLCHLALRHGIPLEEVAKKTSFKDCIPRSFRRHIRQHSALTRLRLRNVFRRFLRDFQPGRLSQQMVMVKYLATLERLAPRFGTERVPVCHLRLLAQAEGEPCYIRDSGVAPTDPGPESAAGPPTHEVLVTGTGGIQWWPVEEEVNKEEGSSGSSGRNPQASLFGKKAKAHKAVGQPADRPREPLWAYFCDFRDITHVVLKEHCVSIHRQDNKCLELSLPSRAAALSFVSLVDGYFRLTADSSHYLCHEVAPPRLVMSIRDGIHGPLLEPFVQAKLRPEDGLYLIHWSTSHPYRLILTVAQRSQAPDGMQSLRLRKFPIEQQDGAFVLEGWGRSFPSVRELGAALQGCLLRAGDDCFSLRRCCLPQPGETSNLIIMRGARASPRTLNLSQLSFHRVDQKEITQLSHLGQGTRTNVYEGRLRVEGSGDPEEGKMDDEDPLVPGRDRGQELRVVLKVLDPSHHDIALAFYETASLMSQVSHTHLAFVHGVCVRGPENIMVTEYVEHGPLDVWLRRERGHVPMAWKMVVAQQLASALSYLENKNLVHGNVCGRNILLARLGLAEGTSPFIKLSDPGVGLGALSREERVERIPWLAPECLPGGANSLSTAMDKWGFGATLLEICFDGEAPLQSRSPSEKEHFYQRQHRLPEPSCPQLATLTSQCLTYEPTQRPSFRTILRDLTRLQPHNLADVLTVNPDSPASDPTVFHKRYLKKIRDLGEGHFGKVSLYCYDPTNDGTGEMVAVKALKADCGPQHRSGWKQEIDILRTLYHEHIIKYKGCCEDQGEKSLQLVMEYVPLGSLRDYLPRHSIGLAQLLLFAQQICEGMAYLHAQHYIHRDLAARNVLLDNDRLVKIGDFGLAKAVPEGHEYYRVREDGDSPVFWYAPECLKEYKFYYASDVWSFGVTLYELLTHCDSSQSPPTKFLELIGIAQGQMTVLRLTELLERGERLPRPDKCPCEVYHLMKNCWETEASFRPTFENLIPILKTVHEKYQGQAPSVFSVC
T1 sequence (P23458 whole entry): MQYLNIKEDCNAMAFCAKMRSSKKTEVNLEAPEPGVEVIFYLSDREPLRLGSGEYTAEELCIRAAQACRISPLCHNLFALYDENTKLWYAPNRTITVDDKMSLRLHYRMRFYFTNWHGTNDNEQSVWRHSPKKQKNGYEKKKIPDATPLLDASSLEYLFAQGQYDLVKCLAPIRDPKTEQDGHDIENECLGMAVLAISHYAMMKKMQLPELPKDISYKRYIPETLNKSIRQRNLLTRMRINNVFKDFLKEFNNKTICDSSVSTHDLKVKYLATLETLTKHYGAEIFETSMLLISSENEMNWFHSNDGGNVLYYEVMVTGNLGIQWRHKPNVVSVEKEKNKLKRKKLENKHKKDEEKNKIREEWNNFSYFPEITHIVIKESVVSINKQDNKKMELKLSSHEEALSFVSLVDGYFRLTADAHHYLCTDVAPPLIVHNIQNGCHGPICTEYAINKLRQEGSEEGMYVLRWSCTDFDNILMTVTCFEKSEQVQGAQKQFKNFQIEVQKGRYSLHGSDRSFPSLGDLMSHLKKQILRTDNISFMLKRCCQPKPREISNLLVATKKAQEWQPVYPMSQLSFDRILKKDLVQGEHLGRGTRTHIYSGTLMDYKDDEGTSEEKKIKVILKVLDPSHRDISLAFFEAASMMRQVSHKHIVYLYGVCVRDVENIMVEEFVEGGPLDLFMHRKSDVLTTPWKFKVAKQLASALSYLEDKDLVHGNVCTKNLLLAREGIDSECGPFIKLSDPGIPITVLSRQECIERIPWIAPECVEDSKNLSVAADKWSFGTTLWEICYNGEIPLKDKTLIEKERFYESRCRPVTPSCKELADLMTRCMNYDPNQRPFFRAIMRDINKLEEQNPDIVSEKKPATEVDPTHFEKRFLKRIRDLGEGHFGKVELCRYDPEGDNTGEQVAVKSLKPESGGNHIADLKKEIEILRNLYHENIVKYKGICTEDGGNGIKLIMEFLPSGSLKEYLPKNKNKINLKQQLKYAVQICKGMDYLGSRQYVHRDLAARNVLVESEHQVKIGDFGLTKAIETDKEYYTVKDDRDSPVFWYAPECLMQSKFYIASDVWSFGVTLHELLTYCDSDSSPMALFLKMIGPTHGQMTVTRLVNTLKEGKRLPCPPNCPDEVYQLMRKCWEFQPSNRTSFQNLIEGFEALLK
T2 sequence (O60674 whole entry): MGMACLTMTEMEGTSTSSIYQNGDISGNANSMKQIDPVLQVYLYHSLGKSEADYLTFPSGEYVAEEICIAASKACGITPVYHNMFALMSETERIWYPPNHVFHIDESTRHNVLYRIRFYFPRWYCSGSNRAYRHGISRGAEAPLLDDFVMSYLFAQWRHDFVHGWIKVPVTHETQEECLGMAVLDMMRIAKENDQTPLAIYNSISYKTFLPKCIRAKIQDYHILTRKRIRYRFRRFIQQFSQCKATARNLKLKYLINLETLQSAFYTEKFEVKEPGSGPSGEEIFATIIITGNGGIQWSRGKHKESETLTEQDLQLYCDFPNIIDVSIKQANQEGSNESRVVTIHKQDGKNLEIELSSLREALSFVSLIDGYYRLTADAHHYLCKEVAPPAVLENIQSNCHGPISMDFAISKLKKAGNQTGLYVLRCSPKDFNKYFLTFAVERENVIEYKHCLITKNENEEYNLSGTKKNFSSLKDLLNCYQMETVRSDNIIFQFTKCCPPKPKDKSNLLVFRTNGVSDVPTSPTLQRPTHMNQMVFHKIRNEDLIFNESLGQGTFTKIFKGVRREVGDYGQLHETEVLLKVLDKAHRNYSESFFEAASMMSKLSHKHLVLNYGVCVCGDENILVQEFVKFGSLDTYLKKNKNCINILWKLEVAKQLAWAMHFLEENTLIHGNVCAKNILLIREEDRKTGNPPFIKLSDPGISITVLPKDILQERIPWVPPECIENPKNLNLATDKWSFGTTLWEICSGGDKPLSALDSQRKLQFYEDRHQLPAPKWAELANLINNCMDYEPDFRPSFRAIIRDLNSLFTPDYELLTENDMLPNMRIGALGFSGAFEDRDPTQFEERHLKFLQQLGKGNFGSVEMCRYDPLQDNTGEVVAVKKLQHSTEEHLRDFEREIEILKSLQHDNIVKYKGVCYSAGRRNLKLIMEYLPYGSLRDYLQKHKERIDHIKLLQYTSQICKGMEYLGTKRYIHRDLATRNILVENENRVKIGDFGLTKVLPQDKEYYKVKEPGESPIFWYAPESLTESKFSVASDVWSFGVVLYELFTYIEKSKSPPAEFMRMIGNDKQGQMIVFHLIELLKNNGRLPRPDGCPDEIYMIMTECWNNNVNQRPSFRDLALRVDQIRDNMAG
T9 sequence (O60674 whole entry V617F): as the sequence (O60674 whole entry) above, with V617F counted along it
T8 sequence (P08684 whole entry): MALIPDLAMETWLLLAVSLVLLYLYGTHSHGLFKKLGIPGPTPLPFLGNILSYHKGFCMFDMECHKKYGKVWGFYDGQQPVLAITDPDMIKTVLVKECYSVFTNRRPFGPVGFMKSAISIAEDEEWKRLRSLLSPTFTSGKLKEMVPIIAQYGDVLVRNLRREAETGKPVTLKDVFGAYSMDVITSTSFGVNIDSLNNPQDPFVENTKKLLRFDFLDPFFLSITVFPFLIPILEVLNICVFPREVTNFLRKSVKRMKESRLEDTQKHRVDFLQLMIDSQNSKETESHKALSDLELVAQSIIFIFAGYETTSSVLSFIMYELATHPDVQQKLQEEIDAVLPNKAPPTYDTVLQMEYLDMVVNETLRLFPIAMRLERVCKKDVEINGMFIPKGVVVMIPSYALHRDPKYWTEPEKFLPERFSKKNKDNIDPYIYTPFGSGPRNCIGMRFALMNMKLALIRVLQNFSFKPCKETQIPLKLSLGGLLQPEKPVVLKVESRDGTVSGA
T7 sequence (P10635 whole entry): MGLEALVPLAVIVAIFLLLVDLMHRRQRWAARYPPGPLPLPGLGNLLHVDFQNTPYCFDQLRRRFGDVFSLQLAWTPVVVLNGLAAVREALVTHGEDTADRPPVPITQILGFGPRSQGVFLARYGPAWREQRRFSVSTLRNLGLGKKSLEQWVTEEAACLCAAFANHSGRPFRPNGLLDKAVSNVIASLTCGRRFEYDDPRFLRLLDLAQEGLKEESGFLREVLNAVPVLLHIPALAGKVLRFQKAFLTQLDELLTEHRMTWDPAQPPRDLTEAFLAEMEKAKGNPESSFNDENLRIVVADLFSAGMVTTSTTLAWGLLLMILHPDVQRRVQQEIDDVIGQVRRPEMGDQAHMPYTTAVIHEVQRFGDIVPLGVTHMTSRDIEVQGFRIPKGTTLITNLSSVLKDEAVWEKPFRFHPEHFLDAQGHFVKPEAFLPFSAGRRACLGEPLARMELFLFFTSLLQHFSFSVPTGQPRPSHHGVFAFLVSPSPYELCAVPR
T6 sequence (P33261 whole entry): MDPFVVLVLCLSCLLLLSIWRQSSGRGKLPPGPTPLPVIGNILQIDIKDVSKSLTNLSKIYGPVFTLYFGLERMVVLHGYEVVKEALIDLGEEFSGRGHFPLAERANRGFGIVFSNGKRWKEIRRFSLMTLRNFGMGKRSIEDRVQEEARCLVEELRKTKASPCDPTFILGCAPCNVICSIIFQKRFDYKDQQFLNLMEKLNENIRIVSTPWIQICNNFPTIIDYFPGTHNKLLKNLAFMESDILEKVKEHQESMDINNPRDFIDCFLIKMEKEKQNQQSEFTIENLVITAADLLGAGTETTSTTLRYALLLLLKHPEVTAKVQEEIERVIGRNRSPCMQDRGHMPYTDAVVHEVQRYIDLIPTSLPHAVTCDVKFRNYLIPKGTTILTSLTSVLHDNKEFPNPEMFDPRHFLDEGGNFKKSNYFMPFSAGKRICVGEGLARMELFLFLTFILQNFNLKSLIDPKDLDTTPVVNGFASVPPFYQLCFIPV

Structure (SMILES)	IC50 [1, 13] [nM]	IC50 [2, 14] [nM]	IC50 [2, 15] [nM]	microsomal CLint at 1 μM [3] [µL/min/mg]	microsomal CLint at 1 μM [4] [µL/min/mg]	AUC [5] [ng·h/mL]	Vd [5] [L/kg]	clearance [5] [mL/min/kg]	half-life [5] [min]	IC50 [6] [nM]	IC50 [7] [nM]	IC50 [8] [nM]	IC50 [9] [nM]	IC50 [10] [nM]	IC50 [11] [nM]	IC50 [12] [nM]	IC50 ([1]; IC50 JAK1 (10 nM) (Km ATP), JAK1 10 nM, Km ATP) [nM]
Cc1cnc(Nc2cnn(C)c2)nc1-c1ccc(C(=O)NCC2(C#N)CC2)cc1 [Example 12, N-((1-Cyanocyclopropyl)methyl)-4-(5-methyl-2-((1-methyl-1H-pyrazol-4-yl)amino)pyrimidin-4-yl)benzamide]	37.5	95.5	3.2	132	4.6	624	0.98	27.1	26.4								
Cc1cnc(Nc2cnn(CC(F)(F)F)c2)nc1-c1ccc(C(=O)NCC#N)cc1 [Example 28, N-(Cyanomethyl)-4-(5-methyl-2-((1-(2,2,2-trifluoroethyl)-1H-pyrazol-4-yl)amino)pyrimidin-4-yl)benzamide]		82.2	2.73			732	0.8	22.9	24							193	
Cc1cnc(Nc2cnn(C3CC3)c2)nc1-c1ccc(C(=O)NCC#N)cc1 [Example 25, N-(Cyanomethyl)-4-(2-((1-cyclopropyl-1H-pyrazol-4-yl)amino)-5-methylpyrimidin-4-yl)benzamide]	11.2	20.9	0.69	263	5.19	607	0.6	29.8	12							47.5	1.34
Cc1cnc(Nc2cnn(C3CCN(C(=O)C4CC4)CC3)c2)nc1-c1ccc(C(=O)NCC#N)cc1 [Example 24, N-(Cyanomethyl)-4-(2-((1-(1-(cyclopropanecarbonyl)piperidin-4-yl)-1H-pyrazol-4-yl)amino)-5-methylpyrimidin-4-yl)benzamide]	13.8	< 0.25	< 0.25	53.6	52.8	1970	0.43	8.4	37.8							2.53	
Cc1cnc(Nc2cnn(C3CCOCC3)c2)nc1-c1ccc(C(=O)NCC#N)cc1 [Example 26, N-(Cyanomethyl)-4-(5-methyl-2-((1-(tetrahydro-2H-pyran-4-yl)-1H-pyrazol-4-yl)amino)pyrimidin-4-yl)benzamide]	14.1	1.03	0.33	17.1	9.3	1060	0.6	15.8	30							31.1	
Cc1cnc(Nc2cnn(C)c2)nc1-c1ccc(C(=O)N[C@@H](C)C#N)cc1 [Example 18, (S)—N-(1-Cyanoethyl)-4-(5-methyl-2-((1-methyl-1H-pyrazol-4-yl)amino)pyrimidin-4-yl)benzamide]	10		0.85	23.3	11	504	1.4	33.1	28.8	49.6						53	

Next, values leading:

IC50 [1, 13] [nM]	IC50 [2, 14] [nM]	IC50 [2, 15] [nM]	microsomal CLint at 1 μM [3] [µL/min/mg]	microsomal CLint at 1 μM [4] [µL/min/mg]	AUC [5] [ng·h/mL]	Vd [5] [L/kg]	clearance [5] [mL/min/kg]	half-life [5] [min]	IC50 [6] [nM]	IC50 [7] [nM]	IC50 [8] [nM]	IC50 [9] [nM]	IC50 [10] [nM]	IC50 [11] [nM]	IC50 [12] [nM]	IC50 ([1]; IC50 JAK1 (10 nM) (Km ATP), JAK1 10 nM, Km ATP) [nM]	Structure (SMILES)
8.65	< 0.25		51.9	180					0.58								CC[C@@H](C#N)NC(=O)c1ccc(-c2nc(Nc3cnn(C4CC(C)(C)OC(C)(C)C4)c3)ncc2Cl)cc1 [Example 182, (S)-4-(5-Chloro-2-((1-(2,2,6,6-tetramethyltetrahydro-2H-pyran-4-yl)-1H-pyrazol-4-yl)amino)pyrimidin-4-yl)-N-(1-cyanopropyl)benzamide]
2.86	27.1								27.3	> 50000	> 50000	> 50000	> 50000	> 50000			Cc1cnc(Nc2cnn(CCO)c2)nc1-c1ccc(C(=O)N[C@@H](C)C#N)cc1 [Example 200, (S)—N-(1-cyanoethyl)-4-(2-((1-(2-hydroxyethyl)-1H-pyrazol-4-yl)amino)-5-methylpyrimidin-4-yl)benzamide]
11.3			16.9	2.39					218						147		C[C@H](C#N)NC(=O)c1ccc(-c2nc(Nc3cnn(C)c3)ncc2Cl)cc1 [Example 97, (R)-4-(5-Chloro-2-((1-methyl-1H-pyrazol-4-yl)amino)pyrimidin-4-yl)-N-(1-cyanoethyl)benzamide]
34.4			259	268					74.4						8.15		Cc1cnc(Nc2cnn(C3C[C@@H](C)O[C@@H](C)C3)c2)nc1-c1ccc(C(=O)N[C@@H](C)C#N)cc1 (stereo partly drawn) [Example 73, N—((S)-1-cyanoethyl)-4-(2-((1-(cis-2,6-dimethyltetrahydro-2H-pyran-4-yl)-1H-pyrazol-4-yl)amino)-5-methylpyrimidin-4-yl)benzamide]
1.28	0.86		115	45.7					1.33								Cc1cnc(Nc2cnn(C3CCN(C)CC3)c2)nc1-c1ccc(C(=O)N[C@H](C#N)C(C)C)cc1 [Example 174, (S)—N-(1-cyano-2-methylpropyl)-4-(5-methyl-2-((1-(1-methylpiperidin-4-yl)-1H-pyrazol-4-yl)amino)pyrimidin-4-yl)benzamide]
